Data reported in publication PMC10101059, “Rational Design of Stapled Antimicrobial Peptides to Enhance Stability and In Vivo Potency against Polymicrobial Sepsis” (Microbiology Spectrum, 2023).
In brackets after ≈: the same amount, converted by molar mass. Read-outs that look alike come from different tables or passages of the source. Bridge positions count the residues as written; N and C are the ends. Square brackets hold non-standard residues; d marks the D form. Peptide text beside a SMILES is read from it. R5 = C=CCCC[C@@](C)(N)C(=O)O

Legend:
P. aeruginosae = assay: microbe, parasite or virus in culture; assay type: cell-based, Pseudomonas aeruginosa; settings: for TP4-3 and meropenem combined MIC: MIC of each agent in combination; for MIC: read-out: Single drug treatment MIC
A. baumannii biofilm = assay: Biofilm rupture assay; assay type: cell-based, Acinetobacter baumannii; settings: even at 4× MIC
Description: (ii) Biofilm rupture assay. Fifty μL of A. baumannii bacterial strains suspension cultures (2 × 10^6 CFU/mL) were plated and incubated in a shaking incubator for 24 h. Then, the wells were washed with PBS and treated with 100 μL of peptide/drug at various concentrations. The plates were incubated for 24 h and then washed with PBS. The wells were treated with 100% methanol for 15 min, and the residual solution was washed followed by drying at room temperature. After the wells were dry, 100 μL of 0.02% crystal violet solution was added, followed by incubation for 30 min at room temperature. The wells were then washed with water and dried for an appropriate length of time. Once the wells were dry, 100 μL of 33% acetic acid was added to the wells and they were incubated at room temperature for 1 h. Absorbance was recorded at 595 nm ([55]).

E. coli = assay: microbe, parasite or virus in culture; assay type: cell-based, Escherichia coli; settings: for MIC: read-out: Single drug treatment MIC; for TP4-3 and meropenem combined MIC: MIC of each agent in combination
NDM1 K. pneumoniae = assay: microbe, parasite or virus in culture; assay type: cell-based, Klebsiella pneumoniae; settings: for MIC: read-out: Single drug treatment MIC; for TP4-3 and meropenem combined MIC: MIC of each agent in combination
A. baumannii = assay: Bacterial killing kinetics; assay type: cell-based, Acinetobacter baumannii; settings: at respective MBC
Description: Mid-log-phase A. baumannii (5 × 10^5 CFU/mL) bacterial cells were treated with the test candidates at appropriate bactericidal concentrations, followed by incubation at 37°C. The treated bacterial cells were plated in MHA to determine the bacterial killing rate as a function of time ([52]).

Acinetobacter baumannii = assay: microbe, parasite or virus in culture; assay type: cell-based; settings: for MBC: read-out: MBC; for MIC: read-out: MIC
Description: The antimicrobial assay was performed according to a modified National Committee for Clinical Laboratory Standards (NCCLS) protocol ([41], [42]). Briefly, 5 × 10^5 CFU/mL bacterial cells were treated with various peptide concentrations and incubated at 37 ± 2°C for 16 to 20 h. The lowest concentration with clear wells was recorded as the MIC for each test molecule. The clear wells were further plated in Mueller-Hinton agar (MHA) plates, followed by incubation overnight at 37 ± 2°C. After plating, the lowest concentration at which no growth was observed was recorded as the MBC. For the serum sensitivity assay, the antimicrobial activity of the peptides was tested in medium containing 50% human serum ([43], [44]). The antimicrobial assay was performed in the presence of physiological ions and glucose. The test media were supplemented with MgCl2 (1 mM), CaCl2 (2 mM), NaCl (150 mM), KCl (4.5 mM), NH4Cl (6 μM) ([45], [46]), or glucose (0.2%) ([47]), followed by routine antimicrobial assay as described previously. For the pH sensitivity assay, the antimicrobial assay was performed in media adjusted to pH values ranging from 4 to 12. To estimate the effects of temperature on antimicrobial activity, the peptide was incubated for 1 h at temperatures ranging from 40 to 100°C ([48]), followed by the antimicrobial assay as described above.

MDR A. baumannii 2088 = assay: Checkerboard microdilution assay (FICI); assay type: cell-based, Acinetobacter baumannii; settings: for MIC: read-out: Single drug treatment MIC; for TP4-3 and meropenem combined MIC: MIC of each agent in combination
Description: (§1) The FICI was measured using a standard checkerboard microdilution assay ([57]). Two-fold dilutions of antibiotics were made across the x axis, and two-fold peptide dilutions were made across the y axis. Next, bacteria were added at 5 × 10^5 CFU/well (A. baumannii), followed by incubation at 37 ± 2°C for 16 to 20 h. FIC indices were calculated according to the following equations: FICI = FIC1 + FIC2; FIC1 = (MIC12 combined)/MIC1; FIC2 = (MIC12 combined)/MIC2. The combined efficacy was estimated as follows: FICI ≤ 0.5, synergistic; 0.5 to 1, additive; 1 to 2, indifferent; ≥2, antagonistic.

MDR A. baumannii 2997 = assay: Checkerboard microdilution assay (FICI); assay type: cell-based, Acinetobacter baumannii; settings: for MIC: read-out: Single drug treatment MIC; for TP4-3 and meropenem combined MIC: MIC of each agent in combination
Description: as §1

MDR A. baumannii 1033 = assay: Checkerboard microdilution assay (FICI); assay type: cell-based, Acinetobacter baumannii; settings: for MIC: read-out: Single drug treatment MIC; for TP4-3 and meropenem combined MIC: MIC of each agent in combination
Description: as §1

MDR A. baumannii 2998 = assay: Checkerboard microdilution assay (FICI); assay type: cell-based, Acinetobacter baumannii; settings: for MIC: read-out: Single drug treatment MIC; for TP4-3 and meropenem combined MIC: MIC of each agent in combination
Description: as §1

MDR A. baumannii 3618 = assay: Checkerboard microdilution assay (FICI); assay type: cell-based, Acinetobacter baumannii; settings: for MIC: read-out: Single drug treatment MIC; for TP4-3 and meropenem combined MIC: MIC of each agent in combination
Description: as §1

[1] = 24 h pre-incubation in 50% human serum
[2] = Acinetobacter baumannii, 1 h, agent pre-exposed to 40°C for 1 h
[3] = Acinetobacter baumannii, 1 h, agent pre-exposed to 60°C for 1 h
[4] = Acinetobacter baumannii, 1 h, agent pre-exposed to 80°C for 1 h
[5] = Acinetobacter baumannii, preincubation in 50% human serum 2 h
[6] = Acinetobacter baumannii, preincubation in 50% human serum 6 h
[7] = Acinetobacter baumannii, preincubation in 50% human serum 12 h
[8] = Acinetobacter baumannii, preincubation in 50% human serum 24 h

`C[C@@H](O)[C@H]1C(=O)N2C(C(=O)O)=C(S[C@@H]3CN[C@H](C(=O)N(C)C)C3)[C@H](C)[C@H]12` [Meropenem] was tested, and the “TP4-3 and meropenem combined MIC” value (P. aeruginosae; TP4-3 and M) was 0.78 µM, the MIC (P. aeruginosae; Pseudomonas aeruginosa) was 0.39 µM (≈ 0.15 µg/mL) and the mature biofilm rupture (A. baumannii biofilm) was “minor potential for causing biofilm rupture”. For the same molecule, the MIC (E. coli; Escherichia coli) was 3.13 µM (≈ 1.2 µg/mL), the “TP4-3 and meropenem combined MIC” value (E. coli; TP4-3 and M) was 0.097 µM and the MIC (NDM1 K. pneumoniae; Klebsiella pneumoniae) was 400 µM (≈ 153 µg/mL). The “TP4-3 and meropenem combined MIC” value (NDM1 K. pneumoniae; TP4-3 and M) was 200 µM, the “reduction of the bacterial population” value (A. baumannii; within 8 h) was “approximately half” and the reduction of activity (Acinetobacter baumannii; [1]) was 2 fold. For the same molecule, the MBC (Acinetobacter baumannii; [2]) was 6.25 µM (≈ 2.4 µg/mL), the MIC (Acinetobacter baumannii; [2]) was 6.25 µM (≈ 2.4 µg/mL) and the MBC (Acinetobacter baumannii; [3]) was 6.25 µM (≈ 2.4 µg/mL). For the same molecule, the MIC (Acinetobacter baumannii; [3]) was 6.25 µM (≈ 2.4 µg/mL), the MBC (Acinetobacter baumannii; [4]) was 12.5 µM (≈ 4.79 µg/mL) and the MIC (Acinetobacter baumannii; [4]) was 12.5 µM (≈ 4.79 µg/mL). It also gave an MBC (Acinetobacter baumannii; Acinetobacter baumannii, 1 h, agent pre-exposed to 100°C for 1 h) of over 25 µM, an MBC (Acinetobacter baumannii; [5]) of 6.25 to 12.5 µM (≈ 2.4 to 4.79 µg/mL) and an MIC (Acinetobacter baumannii; [5]) of 6.25 µM (≈ 2.4 µg/mL). For the same molecule, the MBC (Acinetobacter baumannii; [6]) was 6.25 to 12.5 µM (≈ 2.4 to 4.79 µg/mL), the MIC (Acinetobacter baumannii; [6]) was 6.25 µM (≈ 2.4 µg/mL) and the MBC (Acinetobacter baumannii; [7]) was 12.5 µM (≈ 4.79 µg/mL). For the same molecule, the MIC (Acinetobacter baumannii; [7]) was 6.25 µM (≈ 2.4 µg/mL), the MBC (Acinetobacter baumannii; [8]) was 25 µM (≈ 9.59 µg/mL) and the MIC (Acinetobacter baumannii; [8]) was 12.5 µM (≈ 4.79 µg/mL). The MIC (Acinetobacter baumannii; Acinetobacter baumannii, agent pre-exposed to 100°C for 1 h) was over 25 µM, the MIC (MDR A. baumannii 2088; Acinetobacter baumannii) was 400 µM and the “TP4-3 and meropenem combined MIC” value (MDR A. baumannii 2088; TP4-3 and M) was 100 µM. The MIC (MDR A. baumannii 2997; Acinetobacter baumannii) was 200 µM, the “TP4-3 and meropenem combined MIC” value (MDR A. baumannii 2997; TP4-3 and M) was 12.5 µM and the MIC (MDR A. baumannii 1033; Acinetobacter baumannii) was 200 µM. The “TP4-3 and meropenem combined MIC” value (MDR A. baumannii 1033; TP4-3 and M) was 50 µM, the MIC (MDR A. baumannii 2998; Acinetobacter baumannii) was 400 µM and the “TP4-3 and meropenem combined MIC” value (MDR A. baumannii 2998; TP4-3 and M) was 50 µM. For the same molecule, the MIC (MDR A. baumannii 3618; Acinetobacter baumannii) was 200 µM and the “TP4-3 and meropenem combined MIC” value (MDR A. baumannii 3618; TP4-3 and M) was 25 µM.

`CC[C@H](C)[C@H](NC(=O)[C@@H](NC(=O)[C@@H](N)Cc1ccccc1)[C@@H](C)CC)C(=O)N[C@]1(C)CCCC=CCCC[C@](C)(C(=O)NCC(=O)N[C@@H](CC(C)C)C(=O)N[C@@H](Cc2ccccc2)C(=O)N[C@@H](CCCCN)C(=O)N[C@@H](CCCCN)C(=O)N[C@@H](CCCCN)C(=O)N[C@@H](C)C(=O)NCC(=O)N[C@@H](C)C(=O)N[C@]2(C)CCCC=CCCC[C@](C)(C(=O)N[C@H](C(=O)N[C@@H](CCCCN)C(=O)N[C@@H](CCCCN)C(=O)O)[C@@H](C)CC)NC(=O)[C@H](CCCCN)NC(=O)[C@H](CCCCN)NC(=O)[C@H](CCCCN)NC2=O)NC(=O)[C@H](CO)NC(=O)[C@H](CCCCN)NC(=O)[C@H](CCCCN)NC1=O` [TP4-3] (H-FII[R5]KKS[R5]GLFKKKAGA[R5]KKK[R5]IKK-OH; staple 4-8, 18-22; N-terminus and C-terminus assumed) was tested, and the “TP4-3 and meropenem combined MIC” value (P. aeruginosae; TP4-3 and D) was 6.25 µM, the “TP4-3 and meropenem combined MIC” value (P. aeruginosae; TP4-3 and M) was 0.78 µM and the MIC (P. aeruginosae) was 25 µM (≈ 72.3 µg/mL). The mature biofilm rupture (A. baumannii biofilm) was “minor potential for causing biofilm rupture”, the “TP4-3 and meropenem combined MIC” value (E. coli; TP4-3 and D) was 6.25 µM and the “TP4-3 and meropenem combined MIC” value (E. coli; TP4-3 and M) was 0.78 µM. For the same molecule, the MIC (E. coli) was 25 µM (≈ 72.3 µg/mL), the “TP4-3 and meropenem combined MIC” value (NDM1 K. pneumoniae; TP4-3 and D) was 6.25 µM and the “TP4-3 and meropenem combined MIC” value (NDM1 K. pneumoniae; TP4-3 and M) was 6.25 µM. For the same molecule, the MIC (NDM1 K. pneumoniae; NDM1) was 25 µM (≈ 72.3 µg/mL), the “time to clear the entire bacterial load” value (A. baumannii) was at most 8 h and the reduction of activity (Acinetobacter baumannii; 12 h pretreatment in 50% human serum) was 2 fold. For the same molecule, the reduction of activity (Acinetobacter baumannii; [1]) was 4 fold, the “reduction of activity (MBC)” value (Acinetobacter baumannii; in pH 6) was 4 fold and the lower bactericidal potency (Acinetobacter baumannii; media supplemented with CaCl2) was at most 8 fold. The lower bactericidal potency (Acinetobacter baumannii; media supplemented with MgCl2) was “up to 4 fold”, the “lowered bactericidal potency (MBC)” value (Acinetobacter baumannii; media supplemented with NaCl, KCl, or NH4Cl vs non-supplemented medium) was “up to 2 fold” and the MBC (Acinetobacter baumannii; pH 6) was 12.5 µM (≈ 36.1 µg/mL). It also gave an MIC (Acinetobacter baumannii; pH 6) of 12.5 µM (≈ 36.1 µg/mL), an MBC (Acinetobacter baumannii; pH 7.4) of 3.13 µM (≈ 9.05 µg/mL) and an MIC (Acinetobacter baumannii; pH 7.4) of 3.13 µM (≈ 9.05 µg/mL). For the same molecule, the MBC (Acinetobacter baumannii; pH 8) was 3.13 µM (≈ 9.05 µg/mL), the MIC (Acinetobacter baumannii; pH 8) was 3.13 µM (≈ 9.05 µg/mL) and the MBC (Acinetobacter baumannii; pH 10) was 3.13 µM (≈ 9.05 µg/mL). The MIC (Acinetobacter baumannii; pH 10) was 0.78 µM (≈ 2.25 µg/mL), the “TP4-3 and meropenem combined MIC” value (MDR A. baumannii 2088; TP4-3 and D) was 3.13 µM and the “TP4-3 and meropenem combined MIC” value (MDR A. baumannii 2088; TP4-3 and M) was 3.13 µM. The MIC (MDR A. baumannii 2088) was 6.25 µM, the “TP4-3 and meropenem combined MIC” value (MDR A. baumannii 2997; TP4-3 and D) was 3.13 µM and the “TP4-3 and meropenem combined MIC” value (MDR A. baumannii 2997; TP4-3 and M) was 3.13 µM. For the same molecule, the MIC (MDR A. baumannii 2997) was 6.25 µM, the “TP4-3 and meropenem combined MIC” value (MDR A. baumannii 1033; TP4-3 and D) was 3.13 µM and the “TP4-3 and meropenem combined MIC” value (MDR A. baumannii 1033; TP4-3 and M) was 3.13 µM. For the same molecule, the MIC (MDR A. baumannii 1033) was 12.5 µM, the “TP4-3 and meropenem combined MIC” value (MDR A. baumannii 2998; TP4-3 and D) was 3.13 µM and the “TP4-3 and meropenem combined MIC” value (MDR A. baumannii 2998; TP4-3 and M) was 3.13 µM. The MIC (MDR A. baumannii 2998) was 6.25 µM, the “TP4-3 and meropenem combined MIC” value (MDR A. baumannii 3618; TP4-3 and D) was 3.13 µM and the “TP4-3 and meropenem combined MIC” value (MDR A. baumannii 3618; TP4-3 and M) was 3.13 µM. The MIC (MDR A. baumannii 3618) was 12.5 µM.
